Laboratory results as given in paper PMC3486884 (PLoS Pathogens, 2012).
Several values for one entry are separate records, joined by “and”; a condition that tells them apart may be missing. Identical values can stand only once. Like-named read-outs stand apart in the source and are kept apart here.

Legend:
[1] = tested on: HRV14
[2] = tested on: HSV1
[3] = tested on: influenza virus (strain A/Puerto Rico/8/34/H1N1 depicted PR8)
[4] = tested on: clathrin-coated vesicles (CCV); test: Acridine orange measurements in clathrin-coated vesicles; conditions: AO red fluorescence assay
Method: CCV suspended in assay buffer (10 mM HEPES, pH7, 100 mM KCl, 1 mM EDTA) were incubated with 1 mM ATP, 2 µM AO (Molecular Probes). The ATPase reaction was initiated by adding MgCl2 to 1 mM and fluorescence was determined at 492/540 nm in a plate reader (Tecan, Männedorf, Switzerland) at room temperature after 10 min. BafA1 and samples without MgCl2 were used as controls.

[5] = tested on: CVA21; test: microbe, parasite or virus in culture; conditions: Coxsackievirus, CVA21, HeLa, read-out: IC50 (CVA21)
[6] = tested on: CVB4; test: microbe, parasite or virus in culture; conditions: Enterovirus B, CVB4, HeLa, read-out: IC50 (CVB4)
[7] = Liposome dextran-FITC de-quenching; conditions: read-out: FITC-fluorescence dequenching, half maximal efficacy; liposomes loaded at pH 5.15 with dextran-FITC
Method: Liposomes from soy phosphatidyl-choline were prepared in 100 mM acetate pH 5.15 containing 1 mM 4.4 kDa FITC-dextran using standard extrusion protocols yielding vesicles of an average size of 200 nm measured using a particle size analyzer (Nicomp 370, Nicomp, Port Richey, FL, USA). Non-encapsulated FITC-dextran was removed by size exclusion chromatography in a G25 column (Pharmacia) followed by extensive dialysis against 100 mM acetate pH 5.15 in a Floatalyzer with 50 kDa cut-off (Spectrumlabs). To measure fluorescence de-quenching FITC-dextran containing liposomes were diluted in PBS at 20–60 µg/ml, incubated with the respective compounds at room temperature and analysed for fluorescence using a plate reader (TECAN Safire II) with fluorescence TOP measurement settings at excitation of 483/10 nm and emission of 525/15 nm wavelength within 15 min. Control measurements of samples containing PBS, Triton X-100 or the compounds alone were carried out to measure background, maximal readout of the assay and auto-fluorescence of compounds. The data were normalized to the PBS control and background fluorescence was subtracted.

[8] = tested on: HRV16; test: microbe, parasite or virus in culture; conditions: Human rhinovirus sp., HRV16, HeLa, read-out: IC50 (HRV16)
[9] = tested on: influenza virus (strain A/Puerto Rico/8/34/H1N1 depicted PR8); test: microbe, parasite or virus in culture; conditions: unidentified influenza virus, A549, read-out: IC50 (PR8)
[10] = tested on: HSV1; test: microbe, parasite or virus in culture; conditions: Human alphaherpesvirus 1, read-out: IC50 (HSV1)
[11] = tested on: HRV1A, 2, 14, 16; test: Infection assays with the HRV panel in HeLa cells; format: cell-based, human rhinovirus
[12] = cited from earlier work
[13] = tested on: HRV1A; test: HRV1A infection of WI-38 human embryonic diploid airway cells; format: cell-based; conditions: Human rhinovirus sp.
Method: A single cell high-content, image based infection assay was applied to measure infection in high throughput format. Viruses were added to cells in infection medium containing BSA (DMEM containing 25 mM HEPES if used outside of a CO2 cell culture incubator, supplemented with L-glutamine, 30 mM MgCl2 and 0.2% BSA (Sigma) for CV and HRV), or in infection medium containing trypsin-TPCK (DMEM supplemented with L-glutamine and TPCK-trypsin 1 µg/ml (Sigma) for FLU/PR8) and normal growth media for HSV. For all experiments, the multiplicity of infection (moi) was chosen such that approximately 20–40% of the cells were infected at 7 h post infection (pi) (HRV &CV), 8 h pi (FLU) or 18 h pi (HSV). Cells were fixed by adding 1/3 volume of a 16% para-formaldehyde solution, washed with PBS, PBS/25 mM NH4Cl and PBS, permeabilized with 0.2% Triton X-100 (Sigma), washed twice with PBS and blocked with PBS/1% BSA (Fraction V, Sigma). […] Routinely, 9–20 images per well were acquired yielding an average of 5000–12000 cells analysed per well and data point. […] Images were analyzed using a custom written Matlab routine. […]
Compounds were dissolved in dimethyl sulfoxid (DMSO, cell culture grade, Sigma) and added to cells in dilutions indicated with respective concentrations of solvent alone as controls. […] Infection was quantified by immune-staining for dsRNA. […]

[14] = tested on: HRV1A; test: microbe, parasite or virus in culture; conditions: Human rhinovirus sp.
[15] = tested on: HRV16
[16] = tested on: rats; conditions: cited from earlier work
[17] = tested on: HRV2; test: microbe, parasite or virus in culture; conditions: Human rhinovirus sp., HRV2, HeLa, read-out: IC50 (HRV2)
[18] = tested on: HRV2
[19] = pKa and log P quoted from the literature; format: physicochemical; conditions: pH 7.4
[20] = tested on: HRV14; test: microbe, parasite or virus in culture; conditions: Human rhinovirus sp., HRV14, HeLa, read-out: IC50 (HRV14)
[21] = tested on: HRV1A; test: Full cycle infectivity assay (virus titer, TCID50); format: cell-based, human rhinovirus; conditions: full cycle assays; BafA1 (0.5 nM), alone or drug combination
[22] = tested on: CVA21
[23] = tested on: CVB4
[24] = tested on: CVB3; test: microbe, parasite or virus in culture; conditions: Enterovirus B, CVB3, HeLa, read-out: IC50 (CVB3)
[25] = tested on: CVB3

For `O=C(Nc1ccc([N+](=O)[O-])cc1Cl)c1cc(Cl)ccc1O` [niclosamide, 5-chloro-N-(2-chloro-4-nitrophenyl)-2-hydroxybenzamide, reference compound], the “TI (IC50 / CC50), HRV14” value [1] was 24.1, the “TI (IC50 / CC50), HSV1” value [2] was 1.37 and the “TI (IC50 / CC50), PR8” value [3] was 24.4. The “pH of isolated CCV” value [4] was “neutralized the pH of CCV in a dose-dependent manner”, the IC50 [5] was 6630 nM and the IC50 [6] was 3880 nM. The EC50 [7] was 14000 nM, the IC50 [8] was 1380 nM and the IC50 [9] was 830 nM. For the same compound, the IC50 [10] was > 10000 nM and 14800 nM, the IC50 ([11]; Human rhinovirus sp., HRV1A, HeLa, read-out: IC50 (range over HRV1A, 2, 14, 16)) was 840 to 1400 nM and the “effect of drug washout on the antiviral effect” value ([11]; cells pre-treated 30 min or 18 h, washed with drug-free medium) was “completely abolished the antiviral effect”. The “time of addition giving half maximal effects” value ([11]; compound added before or post infection of HeLa cells with HRV) was at most 30 min pi, the “effect of virus pre-treatment on the inhibition profile” value ([11]; viruses pre-treated at up to 400 µM at 37°C for 30 min) was “did not affect the inhibition profile” and the “log P” value ([12]; pH 5.7) was 5.63. The “log P” value ([12]; pH 7) was 4.48, the IC50 [13] was 1300 nM and the IC50 ([14]; HeLa, read-out: IC50 (HRV1A)) was 1040 nM. For the same compound, the activity at 0.03 µM ([14]; M-HeLa, 7 h, read-out: HRV1A infection (dsRNA), 0.03 µM) was 98%, the activity at 0.1 µM ([14]; M-HeLa, 7 h, read-out: HRV1A infection (dsRNA), 0.10 µM) was 96% and the activity at 0.31 µM ([14]; M-HeLa, 7 h, read-out: HRV1A infection (dsRNA), 0.31 µM) was 90%. For the same compound, the activity at 0.93 µM ([14]; M-HeLa, 7 h, read-out: HRV1A infection (dsRNA), 0.93 µM) was 39%, the activity at 2.78 µM ([14]; M-HeLa, 7 h, read-out: HRV1A infection (dsRNA), 2.78 µM) was 4% and the activity at 8.33 µM ([14]; M-HeLa, 7 h, read-out: HRV1A infection (dsRNA), 8.33 µM) was 5%. For the same compound, the activity at 25 µM ([14]; M-HeLa, 7 h, read-out: HRV1A infection (dsRNA), 25.00 µM) was 4%, the “TI (IC50 / CC50), HRV16” value [15] was 14.7 and the “acute oral toxicity LD50” value [16] was over 5 g/kg body weight. For the same compound, the IC50 [17] was 1010 nM, the “TI (IC50 / CC50), HRV2” value [18] was 20.1 and the “molecules in the deprotonated form” value [19] was “about 99%”. For the same compound, the IC50 [20] was 840 nM, the “decrease of virus titers” value [21] was “about five-fold” and the “TI (IC50 / CC50), CVA21” value [22] was 3.06. For the same compound, the “TI (IC50 / CC50), CVB4” value [23] was 5.22, the IC50 [24] was over 50000 nM and the “TI (IC50 / CC50), CVB3” value [25] was under 0.4.
